Source: patent US20250163488A1, “CONJUGATION METHOD INVOLVING A TRANSGLUTAMINASE AT THE FC REGION COMPRISING A TRIMMED N-GLYCAN” (ADC THERAPEUTICS SA, priority 2022, published 2025)

Biological target: T1, MTGase (Streptomyces mobaraensis, UniProt P81453)
T1 sequence (P81453 77-407): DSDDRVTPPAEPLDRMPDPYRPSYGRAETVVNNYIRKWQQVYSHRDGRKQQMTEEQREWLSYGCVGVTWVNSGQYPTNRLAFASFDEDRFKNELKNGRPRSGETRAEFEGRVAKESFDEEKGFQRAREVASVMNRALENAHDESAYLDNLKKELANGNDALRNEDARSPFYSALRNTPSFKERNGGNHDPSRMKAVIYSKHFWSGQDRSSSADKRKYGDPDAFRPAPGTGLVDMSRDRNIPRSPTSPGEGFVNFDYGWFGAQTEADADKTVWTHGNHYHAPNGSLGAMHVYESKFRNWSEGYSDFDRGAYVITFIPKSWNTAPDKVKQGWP
Experiment: MTGase mediated conjugation of linkers to deglycosylated/trimmed antibody X, efficiency by LC-MS
Format: biochemical
Set-up: Efficiency of MTGase mediated conjugation, PNGase F Process: tested at 200 eq
Details: linker 200 eq., 37° C., 18 h; for Efficiency of MTGase mediated conjugation, EndoS Process: antibody X glycan trimmed with EndoS; for Efficiency of MTGase mediated conjugation, PNGase F Process: antibody X deglycosylated with PNGase F
Description: Antibody X (2.5 mg) was degylcosylated using PNGase F (379 KU) at an antibody concentration of 1.33 mg/mL, the digest was incubated at 37° C. for 18 h. Deglycosylated antibody X was purified by protein A chromatography followed by buffer exchange into PBS and concentration by UF/DF.
Antibody X (2.5 mg) glycans were trimmed using EndoS (12.5 μg) at an antibody concentration of 1.0 mg/mL, the digest was incubated at 37° C. for 18 h. Trimmed antibody X was purified by protein A chromatography followed by buffer exchange into PBS and concentration by UF/DF.
Solutions of linkers 1-4, 7, 8 & 11 (Table 1) were prepared in PBS. Degylcosylated/trimmed antibody X samples (0.1 mg, 2 mg/mL) were next functionalized with linkers 1-4, 7, 8 & 11 (200 eq.) via MTGase mediated conjugation using 6.7 U of enzyme per mg of antibody. The resulting reactions were incubated at 37° C. for 18 h. Functionalized antibody X samples were purified by protein A chromatography followed by buffer exchange into PBS and concentration via UF/DF. The efficiency of conjugation for the purified samples was determined by LC-MS (Table 2).

Row | Molecule | Efficiency of MTGase mediated conjugation, EndoS Process | Efficiency of MTGase mediated conjugation, PNGase F Process
1 | [N-]=[N+]=NCCOCCOCCOCCNC(=O)c1ccc(C(=O)NN)cc1 [Compound 7, 4-hydrazidobenzamide-PEG(4u)-azide] | 100% | –
2 | [N-]=[N+]=NCCOCCOCCOCCNC(=O)c1ccc(NN)cc1 [Compound 8, 4-hydrazinobenzamide-PEG(4u)-azide] | 84% | 91%
3 | [N-]=[N+]=NCCOCCOCCOCCNC(=O)c1ccc(CC(=O)NN)cc1 [Compound 11, 4-hydrazidomethylbenzamide-PEG(4u)-azide] | 100% | –
4 | amine-PEG(3u)-azide [Compound 1] | 100% | 100%
5 | aminooxy-PEG(3u)-azide [Compound 2] | 84% | 95%
6 | hydrazido-PEG(4u)-azide [Compound 3] | 97% | 98%
7 | hydrazino-PEG(4u)-azide [Compound 4] | 86% | 89%
